“Also recorded” adds a separate entry of the source.
Legend:
CK2 = tested on: CK2; design: method as in PMID 21870818; conditions: ref [43]; cited from earlier work
Phe508delCFTR = experiment: De novo synthesized CFTR level after CHX wash-out with CK2 inhibitor, Phe508del; assay type: cell-based, human; conditions: BHK cells, washed; for effect on de novo synthesis / accumulation of Phe508delCFTR: 2 h CHX 100 µg/mL, then 2 µM CX4945 for 2, 4, 8 h, Western blot, vs vehicle, Figure 5C
Method: (§1) Baby hamster kidney cells (BHK) stably expressing human CFTR (hCFTR) either wild type (WT), or Phe508del, or WT T1471A were growth to reach 70–80% confluency. After 2 h-long treatment with 100 µg/mL cyclohexamide, cells were washed with PBS and incubated with 2 µM CX4945 or its vehicle for the indicated time. At each time-point cells were washed with ice-cold PBS, scraped from the plates, pelleted by centrifugation (1200 g for 5 min at room tempertaure) and lysed in a buffer containing 1% (v/v) Nonidet P40, 50 mM Tris/HCl (pH 7.5) and 150 mM NaCl with fresh protease inhibitor tablets (Roche), 1 µM Okadaic acid (Alexis) and phosphatases inhibitors cocktails 2 and 3 (Sigma). Cells were lysed by incubation on ice for 30 min and then the lysates were cleared by centrifugation at 17000 g for 30 min at 4°C. The supernatant was collected and subjected to protein concentration quantification.
Western blot analysis was performed as described in [14] using a modified Laemmli buffer containing 105 mM dithiothreitol (final concentration) to enhance the solubilization of CFTR. 20–30 µg of total proteins were separated on 4–12% precast NuPage® Bis-Tris gradient gels (Invitrogen) according to the manufacturer’s instructions and transferred on to Optitran BA-S 83 nitrocellulose membranes (Whatman) with a semi-dry blotter (Biometra) for 1 h at 150 mA. Membranes were saturated for 1 h with 5% skimmed milk in Tris-buffered saline (TBS) containing 0.2% Tween 20. Immunoblots were developed by enhanced chemiluminescence, detected on Kodak Image Station 440 cf and analyzed by the Kodak 1D image software. […]
In order to evaluate the efficacy of CX4945 on the level of de novo synthesized CFTR, protein synthesis was inhibited by two hours cell treatment with cycloheximide (CHX). Blockade was then removed by washing off CHX and newly synthesized CFTR was quantified after 2, 4, and 8 hrs incubation either in the absence or presence of CX4945. […] This point has been corroborated by performing the experiment in triplicate and drawing from it quantification of Phe508delCFTR band B, as reported in Panel D.

CFTR wild type = experiment: De novo synthesized CFTR level after CHX wash-out with CK2 inhibitor, wild type; assay type: cell-based, human; conditions: BHK cells, 2 h CHX 100 µg/mL, washed, then 2 µM CX4945 for 2, 4, 8 h, Western blot, vs vehicle, Figure 5A
Method: as §1
(§2) Western blot analysis was performed as described in [14] using a modified Laemmli buffer containing 105 mM dithiothreitol (final concentration) to enhance the solubilization of CFTR. […] Immunoblots were developed by enhanced chemiluminescence, detected on Kodak Image Station 440 cf and analyzed by the Kodak 1D image software. […]

CFTR T1471A = experiment: De novo synthesized CFTR level after CHX wash-out with CK2 inhibitor, T1471A; assay type: cell-based, human; conditions: BHK cells; 2 h CHX 100 µg/mL, washed, then 2 µM CX4945 for 2, 4, 8 h; Western blot; vs vehicle; Figure 5B
Method: as §1, §2

Compound: O=C(O)c1ccc2c(c1)nc(Nc1cccc(Cl)c1)c1ccncc12 [CX4945]
- selectivity for CK2 (CK2): the most selective CK2 inhibitor available to date
- effect on de novo synthesis / accumulation of Phe508delCFTR (Phe508delCFTR): the efficacy of inhibiting CK2 is enhanced
- effect on de novo synthesis / accumulation of Phe508delCFTR (Phe508delCFTR; listed as CX-4945): definitely more pronounced in the case of Phe508delCFTR
- increment of Phe508delCFTR band B (Phe508delCFTR; 2 h CHX, then 2 µM CX4945 vs vehicle, Western blot quantitation, experiments in triplicate, Figure 5D): two to three
- effect on de novo synthesis / accumulation of CFTR wild type (CFTR wild type): accumulates more abundantly than in the absence of CK2 inhibitor; also recorded: de novo synthesis of CFTR wild type is significantly stimulated
- effect on de novo synthesis / accumulation of CFTR wild type (CFTR wild type; listed as CX-4945): the re-appearance of CFTR reached higher levels
- effect on de novo synthesis of CFTR T1471A (CFTR T1471A): a similar effect of CX4945 being also detectable; also recorded: a similar effect of CX4945 was observed with CFTR wild type and its T1471A mutant

Reference: publication PMC3776838, “Detection of Phospho-Sites Generated by Protein Kinase CK2 in CFTR: Mechanistic Aspects of Thr1471 Phosphorylation” (PLoS ONE, 2013)
